In patent US7256006B2, “Method for determining the influence of a test substance on the heart activity of a vertebrate” (Multi Channel Systems MCS GmbH, priority 2003, dated 2007):
Structures can show the parent of a compound that is named as a salt. Where two headings read alike, the source gives them in different places.

Assays:
[1] = test system: ventricular myocytes from chicken embryos; assay: extracellular MEA field potential (FPdur) measurement on spontaneously beating heart cells; type: cell-based; settings: submicromolecular concentrations
[2] = test system: ventricular myocytes from chicken embryos; assay: as above; type: cell-based
Description: The heart muscle cells were obtained by trypsin digestion of the isolated ventricle of chicken embryos (10-12 days after fertilization). The heart was freed of blood vessels and atria. The cells were cultured in MEM medium supplemented with 10% fetal calf serum (FCS). One to two days before the measurement, the medium was replaced by standard Tyrode solution.
The standard Tyrode solution was then replaced by a Tyrode solution with 5 μM of a test substance and the change in FPdur was determined. Thereafter, the concentration of the test substance was increased in logarithmic steps. A measurement was now taken every 10 minutes.
In measurements with quinidine, 0.5% DMSO was added to the cell Tyrode since quinidine is not water-soluble. The control experiment was also carried out with DMSO here.
In these qualitative evaluations, i.e. comparison of data from the respective control experiment and the data derived from addition of the QT-modifying substance, possible changes in the heart rate were taken into account.
For the normalized case, the FPdur value was divided by the square root of the time span (in seconds) between two action potentials.

[3] = literature reference; cited from earlier work

Q: With `Cc1cccc(CCN2CCC(C(=O)c3ccc(NS(C)(=O)=O)cc3)CC2)n1.Cl.Cl` [E4031] as the compound, how does the “prolongation of the ventricular action potential” value [1] read?
A: over 90%

Q: For `COc1ccc(CCN2CCC(Nc3nc4ccccc4n3Cc3ccc(F)cc3)CC2)cc1` [astemizol], which “effect on the QT interval” value [2] is on record?
A: prolongating effect

Q: Which “effect on the QT interval” value [2] does the source give for `COc1cc(N)c(Cl)cc1C(=O)NC1CCN(CCCOc2ccc(F)cc2)CC1OC` (centres unmarked) [cisapride] here?
A: prolongating effect

Q: With `CC(C)(C(=O)O)c1ccc(C(O)CCCN2CCC(C(O)(c3ccccc3)c3ccccc3)CC2)cc1` (centres unmarked) [fexofenafine] as the compound, how does the “effect on the QT interval” value [2] read?
A: prolongating effect

Q: For `COc1cc2c(cc1OC)CC(=O)N(CCCN(C)C[C@H]1Cc3cc(OC)c(OC)cc31)CC2` [ivabradine], which “effect on the QT interval” value [2] is on record?
A: No QT prolongation

Q: With `C=C[C@H]1C[N@@]2CC[C@H]1C[C@@H]2[C@@H](O)c1ccnc2ccc(OC)cc12` [quinidine] as the compound, how does the “QT prolongation (increase in FPdur)” value ([2]; FIG. 2B, indicated quinidine concentrations for 200 seconds) read?
A: QT prolongation increasing with concentration

Q: What about the “concentrations at which QT prolongations are shown in vitro in the MEA system” value ([2]; chicken, 10 min) of the same compound?
A: 2000 to 7000 nM

Q: And the “effect on the QT interval” value ([2]; summary of substances tested by the inventors)?
A: prolongating effect

Q: What about the “effect on QT” value [3] of the same compound?
A: QT-prolonging effect

Q: Which “prolongation of the field potential” value [2] does the source give for `CC1(C)Oc2ccc(S(=O)(=O)c3ccccc3)cc2[C@@H](N2CCCC2=O)[C@@H]1O` [rilmakalim] here?
A: did not prolong the field potential

Q: What about the beating frequency ([2]; substance with so far unknown effect on QT interval) of the same compound?
A: reduced the frequency

Q: For `CC(C)NCC(O)c1ccc(NS(C)(=O)=O)cc1` (centres unmarked) [sotalol, N-[4-[1-hydroxy-2-(isopropylamino)ethyl]phenyl]methanesulfonamidehydrochloride], which “effect on the QT interval” value [2] is on record?
A: prolongating effect

Q: What about the “prolongation of the action potential” value [2] of the same compound?
A: about double

Q: For `CC(C)(C)c1ccc(C(O)CCCN2CCC(C(O)(c3ccccc3)c3ccccc3)CC2)cc1` (centres unmarked) [terfenadin], which “effect on the QT interval” value [2] is on record?
A: prolongating effect
